Data taken from US20230312550A1, “N-(2-(4-CYANOTHIAZOLIDIN-3-YL)-2-OXOETHYL)-QUINOLINE-4-CARBOXAMIDES” (AstraZeneca AB, priority 2020, published 2023).
Converted amounts (≈) assume the structure as drawn.

How the values were obtained:
[1] = molecular target: Prolyl endopeptidase, Prolyl Oligopeptidase (hPREP) (Homo sapiens (Human), UniProt P48147); experiment: hPrep inhibition assay; type: biochemical; settings: hPREP 0.6 nM, Z-Gly-Pro-amino-methylcoumarin 50 μM; read-out: PREP IC50
Outline: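 Recombinant human PREP at 0.6 nM final with Z-Gly-Pro-AMC substrate at 50 μM final in Tris-HCl pH 7.5, NaCl, Triton X-100, glutathione; 15 min rt preincubation then 20 min rt reaction in dark. AMC fluorescence (ex 340/em 460 nm); IC50 from one-site dose-response fit of % inhibition.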

[2] = Metabolic stability in rat hepatocytes (rHep); settings: n = 1 or geometric mean of n = 2-3
[3] = molecular target: human Fibroblast activation protein alpha (hFAP) (Homo sapiens (Human), UniProt Q12884); experiment: hFAP inhibition assay (tight binders); type: biochemical; settings: Ala-Pro-AMC 20 μM, n = 1 or geometric mean n = 2-6; note: hFAP 2.4 pM
Sequence of human Fibroblast activation protein alpha (hFAP) (Q12884 38-760): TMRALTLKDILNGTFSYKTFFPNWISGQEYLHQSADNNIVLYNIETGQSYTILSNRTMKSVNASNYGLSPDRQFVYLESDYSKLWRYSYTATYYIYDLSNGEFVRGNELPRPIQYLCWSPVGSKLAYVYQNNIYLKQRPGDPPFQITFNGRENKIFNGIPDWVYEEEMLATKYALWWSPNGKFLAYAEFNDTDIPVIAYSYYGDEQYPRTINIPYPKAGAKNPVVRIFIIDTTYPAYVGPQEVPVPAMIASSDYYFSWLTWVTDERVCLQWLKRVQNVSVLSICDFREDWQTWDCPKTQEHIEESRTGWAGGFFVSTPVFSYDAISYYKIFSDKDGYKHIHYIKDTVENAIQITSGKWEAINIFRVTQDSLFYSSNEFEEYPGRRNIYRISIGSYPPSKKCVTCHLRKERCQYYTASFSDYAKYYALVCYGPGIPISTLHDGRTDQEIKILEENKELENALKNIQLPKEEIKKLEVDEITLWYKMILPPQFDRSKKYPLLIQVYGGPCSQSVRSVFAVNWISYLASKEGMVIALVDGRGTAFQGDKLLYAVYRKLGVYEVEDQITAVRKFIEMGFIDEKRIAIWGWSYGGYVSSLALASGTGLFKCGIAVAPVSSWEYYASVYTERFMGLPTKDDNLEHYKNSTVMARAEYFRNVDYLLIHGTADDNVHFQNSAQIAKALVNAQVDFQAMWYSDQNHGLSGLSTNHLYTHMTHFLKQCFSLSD
Description: The plates were read on a PHERAstar® reader with excitation 340 nm and emission 460 nm. Data were analyzed in Genedata Screener®. IC50 values were determined by plotting % inhibition versus log compound concentration and using a one site dose response model.

[4] = Metabolic stability in human liver microsomes (HLM); settings: human
Description: Metabolic stability in HLM was measured as described in J Comput Aided Mol Des 2015, 29, 795.

Caco-2 cell permeability = settings: human
Description: Caco-2 cell permeability was measured as described in Mol Pharm 2017, 14, 1601.

hFAP (M39-A757) = hFAP (M39-A757) (Homo sapiens (Human), UniProt Q12884); experiment: hFAP binding assay (surface plasmon resonance); settings: SPR, 20° C.; for hFAP Binding assay k(off) / hFAP Binding assay k(on): single cycle kinetics; for Kd: n = 1 or geometric mean n = 2-4
Sequence of hFAP (M39-A757) (Q12884 39-757): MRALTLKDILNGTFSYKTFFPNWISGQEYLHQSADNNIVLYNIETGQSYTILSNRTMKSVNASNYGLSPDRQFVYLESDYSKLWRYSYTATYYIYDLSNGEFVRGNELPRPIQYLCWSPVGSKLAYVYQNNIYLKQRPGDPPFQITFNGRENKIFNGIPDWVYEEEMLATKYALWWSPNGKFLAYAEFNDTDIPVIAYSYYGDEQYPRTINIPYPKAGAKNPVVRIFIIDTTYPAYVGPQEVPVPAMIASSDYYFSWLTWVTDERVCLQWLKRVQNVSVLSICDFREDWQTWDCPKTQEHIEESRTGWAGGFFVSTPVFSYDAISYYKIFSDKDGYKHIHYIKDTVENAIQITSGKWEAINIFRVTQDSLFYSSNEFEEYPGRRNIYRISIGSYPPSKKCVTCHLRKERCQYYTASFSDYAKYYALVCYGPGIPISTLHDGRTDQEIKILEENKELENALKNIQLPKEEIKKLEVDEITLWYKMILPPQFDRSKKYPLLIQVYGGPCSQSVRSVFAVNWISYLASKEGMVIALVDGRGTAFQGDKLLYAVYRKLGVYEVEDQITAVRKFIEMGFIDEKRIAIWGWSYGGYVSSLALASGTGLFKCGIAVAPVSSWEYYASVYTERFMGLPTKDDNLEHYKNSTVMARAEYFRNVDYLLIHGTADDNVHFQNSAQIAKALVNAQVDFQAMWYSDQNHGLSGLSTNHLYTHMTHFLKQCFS

Kinetic solubility = settings: kinetic from dmso stock
Description: Kinetic solubility was measured as described in Comput Aided Mol Des 2015, 29, 795.

[5] = HLM CLint, n = 1 or average of n = 2-3
[6] = Solubility, kinetic solubility, n = 1 or average of n = 2-3

Sequence of Prolyl endopeptidase, Prolyl Oligopeptidase (hPREP) (P48147 whole entry): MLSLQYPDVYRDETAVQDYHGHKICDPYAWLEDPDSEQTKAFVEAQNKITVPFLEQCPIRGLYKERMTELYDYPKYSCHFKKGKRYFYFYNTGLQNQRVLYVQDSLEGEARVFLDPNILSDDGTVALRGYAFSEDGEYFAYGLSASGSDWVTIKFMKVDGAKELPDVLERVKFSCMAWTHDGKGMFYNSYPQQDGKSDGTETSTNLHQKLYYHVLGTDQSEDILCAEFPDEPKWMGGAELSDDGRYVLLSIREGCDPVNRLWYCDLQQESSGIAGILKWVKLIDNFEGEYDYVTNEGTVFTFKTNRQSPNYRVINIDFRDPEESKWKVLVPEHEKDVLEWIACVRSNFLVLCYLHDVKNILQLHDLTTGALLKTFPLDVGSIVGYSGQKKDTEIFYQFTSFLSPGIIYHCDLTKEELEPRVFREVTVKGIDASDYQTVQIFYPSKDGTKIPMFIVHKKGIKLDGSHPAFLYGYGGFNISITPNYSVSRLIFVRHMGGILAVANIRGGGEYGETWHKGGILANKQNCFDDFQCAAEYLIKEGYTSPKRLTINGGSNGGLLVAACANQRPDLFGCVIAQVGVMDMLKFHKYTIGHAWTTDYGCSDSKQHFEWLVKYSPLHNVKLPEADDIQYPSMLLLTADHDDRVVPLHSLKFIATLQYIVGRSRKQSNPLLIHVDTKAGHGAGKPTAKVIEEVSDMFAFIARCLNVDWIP

Row | SMILES | IC50 [1] | rHep CLint [2] | IC50 [3] | microsomal CLint [4, 5] | Papp A→B (Caco-2 cell permeability) | Papp B→A (Caco-2 cell permeability) | efflux ratio (Caco-2 cell permeability) | hFAP Binding assay k(off) (hFAP (M39-A757)) | hFAP Binding assay k(on) (hFAP (M39-A757)) | Kd (hFAP (M39-A757)) | solubility (Kinetic solubility; [6]) | microsomal CLint [4] | solubility (Kinetic solubility) | Papp (Caco-2 cell permeability)
1 | N#C[C@@H]1CSCN1C(=O)CNC(=O)c1ccnc2ccc(N3CC4CCC(C3)O4)cc12 [Example 79, 6-(8-Oxa-3-azabicyclo[3.2.1]octan-3-yl)-N-(2-((R)-4-cyanothiazolidin-3-yl)-2-oxoethyl)quinoline-4-carboxamide] | 630 nM | 6.2 μL/min/1E6 | 0.043 nM | 21 µL/min/mg | 11 nm/s | 330 nm/s | 29 | 0.00012 s⁻¹ | 16000000 M⁻¹ s⁻¹ | 0.018 nM | 610 µM (≈ 267 µg/mL) | – | – | –
2 | COC[C@@H]1CN(c2ccc3nccc(C(=O)NCC(=O)N4CSC[C@H]4C#N)c3c2)CCO1 [Example 93, N-(2-((R)-4-Cyanothiazolidin-3-yl)-2-oxoethyl)-6-((S)-2-(methoxymethyl)-morpholino)quinoline-4-carboxamide] | 1900 nM | 2.6 μL/min/1E6 | 0.091 nM | < 3 µL/min/mg | 3.3 nm/s | 170 nm/s | 50 | 0.000080 s⁻¹ | 1800000 M⁻¹ s⁻¹ | 0.047 nM | 300 µM (≈ 137 µg/mL) | – | – | –
3 | COC[C@@H]1[C@@H](C)OCCN1c1ccc2nccc(C(=O)NCC(=O)N3CSC[C@H]3C#N)c2c1 [Example 97, N-(2-((R)-4-Cyanothiazolidin-3-yl)-2-oxoethyl)-6-((2R,3R)-3-(methoxymethyl)-2-methylmorpholino)quinoline-4-carboxamide] | 890 nM | 19 μL/min/1E6 | 0.23 nM | 32 µL/min/mg | 5.2 nm/s | 230 nm/s | 45 | 0.000076 s⁻¹ | 690000 M⁻¹ s⁻¹ | 0.11 nM | 950 µM (≈ 446 µg/mL) | – | – | –
4 | N#C[C@@H]1CSCN1C(=O)CNC(=O)c1ccnc2ccc(N3CC(N4CCOCC4)C3)cc12 [Example 122, (R)—N-(2-(4-Cyanothiazolidin-3-yl)-2-oxoethyl)-6-(3-morpholinoazetidin-1-yl)quinoline-4-carboxamide] | 840 nM | <1 μL/min/1E6 | 0.049 nM | < 3 µL/min/mg | 2 nm/s | 100 nm/s | 50 | 0.000043 s⁻¹ | 1300000 M⁻¹ s⁻¹ | 0.033 nM | > 1000 µM | – | – | –
5 | CC1(C(F)F)CN(c2ccc3nccc(C(=O)NCC(=O)N4CSC[C@H]4C#N)c3c2)C1 [Example 135, (R)—N-(2-(4-Cyanothiazolidin-3-yl)-2-oxoethyl)-6-(3-(difluoromethyl)-3-methylazetidin-1-yl)quinoline-4-carboxamide] | 500 nM | 6.8 μL/min/1E6 | 0.11 nM | 23 µL/min/mg | 44 nm/s | 290 nm/s | 6.5 | 0.000023 s⁻¹ | 1700000 M⁻¹ s⁻¹ | 0.013 nM | 310 µM (≈ 138 µg/mL) | – | – | –
6 | CCC1(O)CN(c2ccc3nccc(C(=O)NCC(=O)N4CSC[C@H]4C#N)c3c2)C1 [Example 154, (R)—N-(2-(4-Cyanothiazolidin-3-yl)-2-oxoethyl)-6-(3-ethyl-3-hydroxy-azetidin-1-yl)quinoline-4-carboxamide] | 590 nM | 2.7 μL/min/1E6 | 0.092 nM | < 3 µL/min/mg | 3.2 nm/s | 120 nm/s | 37 | 0.000054 s⁻¹ | 910000 M⁻¹ s⁻¹ | 0.059 nM | 850 µM (≈ 362 µg/mL) | – | – | –
7 | N#C[C@@H]1CSCN1C(=O)CNC(=O)c1ccnc2ccc(N3CC4(CC(F)C4)C3)cc12 [Example 155, (R)—N-(2-(4-Cyanothiazolidin-3-yl)-2-oxoethyl)-6-(6-fluoro-2-azaspiro[3.3]heptan-2-yl)quinoline-4-carboxamide] | 380 nM | 3.2 μL/min/1E6 | 0.086 nM | – | 42 nm/s | 270 nm/s | 6.5 | 0.000050 s⁻¹ | 3100000 M⁻¹ s⁻¹ | 0.016 nM | – | 19 µL/min/mg | 400 µM (≈ 176 µg/mL) | –
8 | N#C[C@@H]1CSCN1C(=O)CNC(=O)c1ccnc2ccc(N3CCC4(CC3)COC4)cc12 [Example 229, (R)—N-(2-(4-cyanothiazolidin-3-yl)-2-oxoethyl)-6-(2-oxa-7-azaspiro[3.5]nonan-7-yl)quinoline-4-carboxamide] | 320 nM | 15 μL/min/1E6 | 0.091 nM | – | 220 nm/s | 320 nm/s | – | 0.000026 s⁻¹ | 2400000 M⁻¹ s⁻¹ | 0.01 nM | – | < 3 µL/min/mg | > 1000 µM | 7 nm/s

Second part, led by results:

Row | IC50 [1] | rHep CLint [2] | IC50 [3] | microsomal CLint [4, 5] | Papp A→B (Caco-2 cell permeability) | Papp B→A (Caco-2 cell permeability) | efflux ratio (Caco-2 cell permeability) | hFAP Binding assay k(off) (hFAP (M39-A757)) | hFAP Binding assay k(on) (hFAP (M39-A757)) | Kd (hFAP (M39-A757)) | solubility (Kinetic solubility; [6]) | SMILES | microsomal CLint [4] | solubility (Kinetic solubility) | Papp (Caco-2 cell permeability)
9 | 670 nM | <1 μL/min/1E6 | 0.32 nM | < 3 µL/min/mg | – | – | – | 0.000063 s⁻¹ | 1200000 M⁻¹ s⁻¹ | 0.051 nM | > 1000 µM | CC1(O)CN(c2ccc3nccc(C(=O)NCC(=O)N4CSC[C@H]4C#N)c3c2)C1 [Example 165, (R)—N-(2-(4-Cyanothiazolidin-3-yl)-2-oxoethyl)-6-(3-hydroxy-3-methyl-azetidin-1-yl)quinoline-4-carboxamide] | – | – | 5.1 nm/s
10 | 440 nM | <1 μL/min/1E6 | 0.056 nM | 11 µL/min/mg | 2.9 nm/s | 130 nm/s | 46 | 0.000051 s⁻¹ | 2600000 M⁻¹ s⁻¹ | 0.02 nM | 840 µM (≈ 381 µg/mL) | CCC1(O)CCN(c2ccc3nccc(C(=O)NCC(=O)N4CSC[C@H]4C#N)c3c2)CC1 [Example 189, (R)—N-(2-(4-Cyanothiazolidin-3-yl)-2-oxoethyl)-6-(4-ethyl-4-hydroxy-piperidin-1-yl)quinoline-4-carboxamide] | – | – | –
11 | 690 nM | <1 μL/min/1E6 | 0.069 nM | < 3 µL/min/mg | 3.2 nm/s | 76 nm/s | 24 | 0.000036 s⁻¹ | 1800000 M⁻¹ s⁻¹ | 0.02 nM | > 1000 µM | CC1(O)CCN(c2ccc3nccc(C(=O)NCC(=O)N4CSC[C@H]4C#N)c3c2)CC1 [Example 190, (R)—N-(2-(4-Cyanothiazolidin-3-yl)-2-oxoethyl)-6-(4-hydroxy-4-methyl-piperidin-1-yl)quinoline-4-carboxamide] | – | – | –
12 | 200 nM | 2.9 μL/min/1E6 | 0.051 nM | 28 µL/min/mg | 5.1 nm/s | 390 nm/s | 76 | 0.000014 s⁻¹ | 1300000 M⁻¹ s⁻¹ | 0.0077 nM | 530 µM (≈ 248 µg/mL) | CC(C)C1(O)CCN(c2ccc3nccc(C(=O)NCC(=O)N4CSC[C@H]4C#N)c3c2)CC1 [Example 192, (R)—N-(2-(4-Cyanothiazolidin-3-yl)-2-oxoethyl)-6-(4-hydroxy-4-isopropyl-piperidin-1-yl)quinoline-4-carboxamide] | – | – | –
13 | 430 nM | 1.4 μL/min/1E6 | 0.17 nM | < 3 µL/min/mg | 23 nm/s | 300 nm/s | 13 | 0.000053 s⁻¹ | 4600000 M⁻¹ s⁻¹ | 0.011 nM | 280 µM (≈ 119 µg/mL) | CO[C@H]1CCN(c2ccc3nccc(C(=O)NCC(=O)N4CSC[C@H]4C#N)c3c2)C1 [Example 207, N-(2-((R)-4-Cyanothiazolidin-3-yl)-2-oxoethyl)-6-((S)-3-methoxy-pyrrolidin-1-yl)quinoline-4-carboxamide] | – | – | –
